Patent US5162330A, “Dynemicin C antibiotic, its triacetyl derivative and pharmaceutical composition containing same” (Bristol-Myers Squibb Co., priority 1990, dated 1992)
Values after ≈ are worked out from the molar mass of the structure shown.

What was measured:
[1] = test system: Cryptococcus neoformans D49; assay: In vitro antifungal MIC; assay type: cell-based; details: for activity (compared with amphotericin B and ketoconazole): Cryptococcus neoformans D49, in words; for MIC: Cryptococcus neoformans, D49, 40 h, pH 7
Protocol: (§1) The antifungal MICs of dynemicin C and its triacetate were determined by an agar dilution method on yeast morphology agar adjusted to pH7.0 with 1/15M phosphate buffer. A 5 μl aliquot of fungal suspension containing 10^6 cells/ml was inoculated onto the surface of the antibiotic-containing agar plates with a multiinoculator.

[2] = test system: Candida albicans ATCC 38247; assay: In vitro antifungal MIC; assay type: cell-based; details: for activity compared with ketoconazole: Candida albicans ATCC 38247, amphotericin resistant, in words; for MIC: Candida albicans, ATCC38247, 40 h, pH 7
Protocol: as §1

C. neoformans IAM4514 = assay: In vitro antifungal MIC; assay type: cell-based, Cryptococcus neoformans; details: for activity (compared with amphotericin B and ketoconazole): C. neoformans IAM4514, in words
Protocol: as §1

[3] = test system: Pseudomonas aeruginosa species; assay: In vitro antibacterial activity, Pseudomonas aeruginosa as a group; assay type: cell-based; details: in words
Protocol: (§2) The minimum inhibitory concentration (MIC) was determined by a two-fold serial tube dilution method using nutrient agar (pH7, Difco containing 10^5 cfu/ml).

[4] = test system: HCT-116 (human colon carcinoma) cells; assay: In vitro cytotoxicity; assay type: cell-based; details: 72 hours, 37° C., neutral red, 540 nm
Protocol: (§3) Dynemicin C and its triacetate derivative were tested for in vitro cytotoxicity against murine and human tumor cell lines. Dynemicin A and its triacetate derivative were used as reference compounds. B16-F10 (murine melanoma) cells were grown to the logarithmic phase in enriched Eagle minimum essential medium (MEM) supplemented with fetal calf serum (FCS, 10%) and kanamycin (60 mcg/ml) and HCT-116 (human colon carcinoma) cells in Maccoy's 5A medium supplemented with FCS (10%), penicillin (100 μ/ml) and streptomycin (100 mcg/ml), and were harvested and inoculated into wells of the 96- or 24-well tissue culture plate with test materials at concentrations of 1.5×10^4, 1.3×10^4, 1.3×10^4, 2.5×10^4 and 3.0×10^4 cells/ml., respectively. They were incubated at 37° C. in a humidified atmosphere of 5% CO2 and 95% air for 72 hours. The cytotoxic activities were determined colorimetrically at 540 nm after staining viable cells with 0.006% neutral red solution.

[5] = test system: B16-F10 (murine melanoma) cells; assay: In vitro cytotoxicity; assay type: cell-based; details: Mus musculus, 72 hours, 37° C., neutral red, 540 nm
Protocol: as §3

Solubility = assay type: physicochemical
gram-negative organisms = assay: In vitro antibacterial activity, gram-negative organisms as a group; assay type: cell-based
Protocol: as §2

gram-positive organisms = assay: In vitro antibacterial activity, gram-positive organisms as a group; assay type: cell-based; details: for activity against gram-positive organisms compared with amikacin: comparison in words; for activity against gram-positive organisms: in words
Protocol: as §2

[6] = test system: murine and human tumor cell lines; assay: In vitro cytotoxicity, tumor cell lines as a group; assay type: cell-based; details: in words
Protocol: as §3

S. aureus IPM-24 (MRSA) = assay: In vitro antibacterial MIC; assay type: cell-based; details: Staphylococcus aureus, 18 h, pH 7
Protocol: as §2

S. aureus smith = assay: In vitro antibacterial MIC; assay type: cell-based; details: Staphylococcus aureus, 18 h, pH 7
Protocol: as §2

P. cepecia A21213 = assay: In vitro antibacterial MIC; assay type: cell-based; details: 18 h, pH 7
Protocol: as §2

S. epidermidis 11-1230 = assay: In vitro antibacterial MIC; assay type: cell-based; details: Staphylococcus epidermidis, 111230, 18 h, pH 7
Protocol: as §2

E. coli Juhl A15119 = assay: In vitro antibacterial MIC; assay type: cell-based; details: Escherichia coli, JUHLA15119, 18 h, pH 7
Protocol: as §2

E. cloacae IPM-12 = assay: In vitro antibacterial MIC; assay type: cell-based; details: Enterobacter cloacae, IPM12, 18 h, pH 7
Protocol: as §2

P. aeruginosa IPM-8 = assay: In vitro antibacterial MIC; assay type: cell-based; details: Pseudomonas aeruginosa, IPM8, 18 h, pH 7
Protocol: as §2

P. aeruginosa A9843A = assay: In vitro antibacterial MIC; assay type: cell-based; details: Pseudomonas aeruginosa, 18 h, pH 7
Protocol: as §2

M. morganii I510 = assay: In vitro antibacterial MIC; assay type: cell-based; details: Morganella morganii, I510, 18 h, pH 7
Protocol: as §2

S. aureus A15036 (MRSA) = assay: In vitro antibacterial MIC; assay type: cell-based; details: Staphylococcus aureus, 18 h, pH 7
Protocol: as §2

P. cepecia No. 651 = assay: In vitro antibacterial MIC; assay type: cell-based; details: 18 h, pH 7
Protocol: as §2

E. coli 255 = assay: In vitro antibacterial MIC; assay type: cell-based; details: Escherichia coli, 255, 18 h, pH 7
Protocol: as §2

S. marcescens IPM-15 = assay: In vitro antibacterial MIC; assay type: cell-based; details: Serratia marcescens, IPM15, 18 h, pH 7
Protocol: as §2

P. aeruginosa KKA19 = assay: In vitro antibacterial MIC; assay type: cell-based; details: Pseudomonas aeruginosa, pH 7, nutrient agar pH7, 32° C., 18 hours
Protocol: as §2

S. marcescens IPM-16 = assay: In vitro antibacterial MIC; assay type: cell-based; details: Serratia marcescens, IPM16, 18 h, pH 7
Protocol: as §2

X. maltophilia GN12873 = assay: In vitro antibacterial MIC; assay type: cell-based; details: Stenotrophomonas maltophilia, pH 7, nutrient agar pH7, 32° C., 18 hours
Protocol: as §2

X. maltophilia No. 661 = assay: In vitro antibacterial MIC; assay type: cell-based; details: Stenotrophomonas maltophilia, pH 7, nutrient agar pH7, 32° C., 18 hours
Protocol: as §2

P. rettgeri IPM-14 = assay: In vitro antibacterial MIC; assay type: cell-based; details: Providencia rettgeri, IPM14, 18 h, pH 7
Protocol: as §2

P. aeruginosa IPM-9 = assay: In vitro antibacterial MIC; assay type: cell-based; details: Pseudomonas aeruginosa, IPM9, 18 h, pH 7
Protocol: as §2

P. mirabilis IFO 3849 = assay: In vitro antibacterial MIC; assay type: cell-based; details: Proteus mirabilis, IFO3849, 18 h, pH 7
Protocol: as §2

K. pneumoniae PCI 602 = assay: In vitro antibacterial MIC; assay type: cell-based; details: Klebsiella pneumoniae, PCI602, 18 h, pH 7
Protocol: as §2

E. faecalis A9808 = assay: In vitro antibacterial MIC; assay type: cell-based; details: Enterococcus faecalis, A9808, 18 h, pH 7
Protocol: as §2

M. luteus PCI 1001 = assay: In vitro antibacterial MIC; assay type: cell-based; details: Micrococcus luteus, PCI1001, pH 7, nutrient agar pH7, 32° C., 18 hours
Protocol: as §2

E. faecium A24817 = assay: In vitro antibacterial MIC; assay type: cell-based; details: Enterococcus faecium, pH 7, nutrient agar pH7, 32° C., 18 hours
Protocol: as §2

P. aeruginosa A20599 = assay: In vitro antibacterial MIC; assay type: cell-based; details: Pseudomonas aeruginosa, A20599, 18 h, pH 7
Protocol: as §2

P. vulgaris IPM-13 = assay: In vitro antibacterial MIC; assay type: cell-based; details: Proteus vulgaris, IPM13, 18 h, pH 7
Protocol: as §2

In the case of `COC1=C(C=O)C(C)C23OC24c2cc(O)c5c(c2NC3C#CC=CC#CC14)C(=O)c1c(O)ccc(O)c1C5=O` (stereo not drawn) [Dynemicin C], the “activity (compared with amphotericin B and ketoconazole)” value [1] is reported as “much more active than amphotericin B and ketoconazole”, the MIC [1] is reported as 0.0063 µg/mL (≈ 0.0121 µM) and the “activity compared with ketoconazole” value [2] is reported as “stronger than that of ketoconazole”. The MIC [2] was 0.8 µg/mL (≈ 1.53 µM), the “activity (compared with amphotericin B and ketoconazole)” value (C. neoformans IAM4514) was “much more active than amphotericin B and ketoconazole” and the MIC (C. neoformans IAM4514; Cryptococcus neoformans, IAM4514, 40 h, pH 7) was 0.013 µg/mL (≈ 0.0249 µM). The “activity against Pseudomonas aeruginosa species” value [3] was “did not show any activity”, the IC50 [4] was 0.0086 µg/mL (≈ 0.0165 µM) and the IC50 [5] was 0.0028 µg/mL (≈ 0.00537 µM). For the same molecule, the “solubility in 1,4-dioxane” value (Solubility; 1,4-dioxane) was “soluble”, the solubility in acetonitrile (Solubility; acetonitrile) was “soluble” and the solubility in dimethylformamide (Solubility; dimethylformamide) was “soluble”. For the same molecule, the solubility in dimethylsulfoxide (Solubility; dimethylsulfoxide) was “soluble”, the “solubility in ethyl acetate” value (Solubility; ethyl acetate) was “slightly soluble” and the solubility in methanol (Solubility; methanol) was “slightly soluble”. The solubility in n-hexane (Solubility; n-hexane) was “practically insoluble”, the solubility in water (Solubility; water) was “practically insoluble” and the “activity against gram-negatives compared with amikacin” value (gram-negative organisms; other gram-negatives than P. aeruginosa, except Enterobacter cloacae IPM-12 and Serratia marcescens IPM-16) was “activity better than amikacin”. For the same molecule, the “activity against gram-positive organisms compared with amikacin” value (gram-positive organisms) was “much better activities against these organisms than amikacin”, the “activity against gram-positive organisms” value (gram-positive organisms) was “strong activity” and the “cytotoxic activity compared with dynemicin A” value [6] was “almost the same activity as dynemicin A”. For the same molecule, the MIC (S. aureus IPM-24 (MRSA)) was < 0.0002 µg/mL, the MIC (S. aureus smith) was < 0.0002 µg/mL and the MIC (P. cepecia A21213) was 0.1 µg/mL (≈ 0.192 µM). The MIC (S. epidermidis 11-1230) was < 0.0002 µg/mL, the MIC (E. coli Juhl A15119) was 100 µg/mL (≈ 192 µM) and the MIC (E. cloacae IPM-12) was 100 µg/mL (≈ 192 µM). The MIC (P. aeruginosa IPM-8) was 100 µg/mL (≈ 192 µM), the MIC (P. aeruginosa A9843A) was 100 µg/mL (≈ 192 µM) and the MIC (M. morganii I510) was 0.1 µg/mL (≈ 0.192 µM). The MIC (S. aureus A15036 (MRSA)) was < 0.0002 µg/mL, the MIC (P. cepecia No. 651) was 0.1 µg/mL (≈ 0.192 µM) and the MIC (E. coli 255) was 100 µg/mL (≈ 192 µM). The MIC (S. marcescens IPM-15) was 25 µg/mL (≈ 47.9 µM), the MIC (P. aeruginosa KKA19) was 100 µg/mL (≈ 192 µM) and the MIC (S. marcescens IPM-16) was 100 µg/mL (≈ 192 µM). The MIC (X. maltophilia GN12873) was 100 µg/mL (≈ 192 µM), the MIC (X. maltophilia No. 661) was 1.6 µg/mL (≈ 3.07 µM) and the MIC (P. rettgeri IPM-14) was 0.1 µg/mL (≈ 0.192 µM). For the same molecule, the MIC (P. aeruginosa IPM-9) was 100 µg/mL (≈ 192 µM), the MIC (P. mirabilis IFO 3849) was 0.8 µg/mL (≈ 1.53 µM) and the MIC (K. pneumoniae PCI 602) was 0.8 µg/mL (≈ 1.53 µM). The MIC (E. faecalis A9808) was 0.0008 µg/mL (≈ 0.00153 µM), the MIC (M. luteus PCI 1001) was 0.0008 µg/mL (≈ 0.00153 µM) and the MIC (E. faecium A24817) was 0.0008 µg/mL (≈ 0.00153 µM). It also gave an MIC (P. aeruginosa A20599) of 100 µg/mL (≈ 192 µM) and an MIC (P. vulgaris IPM-13) of 0.05 µg/mL (≈ 0.0959 µM).

In the case of `COC1=C(C=O)C(C)C23OC24c2cc(OC(C)=O)c5c(c2NC3C#CC=CC#CC14)C(=O)c1c(OC(C)=O)ccc(OC(C)=O)c1C5=O` (stereo not drawn) [Dynemicin C triacetate], the “activity (compared with amphotericin B and ketoconazole)” value [1] is reported as “inactive”, the MIC [1] is reported as > 100 µg/mL and the “activity compared with ketoconazole” value [2] is reported as “stronger than that of ketoconazole”. The MIC [2] was 0.4 µg/mL, the “activity (compared with amphotericin B and ketoconazole)” value (C. neoformans IAM4514) was “inactive” and the IC50 [4] was 0.0028 µg/mL. For the same molecule, the IC50 [5] was 0.00074 µg/mL, the “solubility relative to dynemicin C” value (Solubility; solvent not stated) was “increased solubility relative to dynemicin C” and the MIC (gram-negative organisms; 18 h, read-out: MIC (range)) was 0.05 to 0.8 µg/mL. The “activity against gram-positive organisms compared with amikacin” value (gram-positive organisms) was “much better activities against these organisms than amikacin”, the “activity against gram-positive organisms” value (gram-positive organisms) was “strong activity” and the MIC (S. aureus IPM-24 (MRSA)) was 0.0004 µg/mL. For the same molecule, the MIC (S. aureus smith) was 0.0008 µg/mL, the MIC (P. cepecia A21213) was 0.2 µg/mL and the MIC (S. epidermidis 11-1230) was 0.0008 µg/mL. The MIC (E. coli Juhl A15119) was 0.4 µg/mL, the MIC (E. cloacae IPM-12) was 0.8 µg/mL and the MIC (P. aeruginosa IPM-8) was 0.4 µg/mL. The MIC (P. aeruginosa A9843A) was 0.2 µg/mL, the MIC (M. morganii I510) was 0.05 µg/mL and the MIC (S. aureus A15036 (MRSA)) was 0.0004 µg/mL. The MIC (P. cepecia No. 651) was 0.2 µg/mL, the MIC (E. coli 255) was 0.4 µg/mL and the MIC (S. marcescens IPM-15) was 0.8 µg/mL. The MIC (P. aeruginosa KKA19) was 0.4 µg/mL, the MIC (S. marcescens IPM-16) was 0.4 µg/mL and the MIC (X. maltophilia GN12873) was 0.8 µg/mL. It also gave an MIC (X. maltophilia No. 661) of 0.2 µg/mL, an MIC (P. rettgeri IPM-14) of 0.1 µg/mL and an MIC (P. aeruginosa IPM-9) of 6.3 µg/mL. For the same molecule, the MIC (P. mirabilis IFO 3849) was 0.2 µg/mL, the MIC (K. pneumoniae PCI 602) was 0.2 µg/mL and the MIC (E. faecalis A9808) was 0.0063 µg/mL. For the same molecule, the MIC (M. luteus PCI 1001) was 0.0031 µg/mL, the MIC (E. faecium A24817) was 0.0063 µg/mL and the MIC (P. aeruginosa A20599) was 0.4 µg/mL. The MIC (P. vulgaris IPM-13) was 0.1 µg/mL.
